Columns and labels:
KHYG-1 (IL-2 2.5 ng/mL) [1] = assay: percent inhibition of viability; higher = more inhibition; settings: 72 h
[2] = test system: normal primary NK cells, pool 2 (3 donors) (IL-2 2.5 ng/mL); assay: as above; settings: 72 h
DERL-7 (IL-2 2.5 ng/mL) [3] = assay: as above; settings: 72 h
NKL (IL-2 2.5 ng/mL) [4] = assay: as above; settings: 72 h
KAI3 (IL-2 2.5 ng/mL) [5] = assay: as above; settings: 72 h
NK-92 (IL-2 2.5 ng/mL) [6] = assay: as above; settings: 72 h
YT (IL-2 2.5 ng/mL) [7] = assay: as above; settings: 72 h
[8] = test system: normal primary NK cells, pool 3 (3 donors) (IL-2 2.5 ng/mL); assay: as above; settings: 72 h
SNK-6 (IL-2 2.5 ng/mL) [9] = assay: as above; settings: 72 h
[10] = test system: normal primary NK cells, pool 1 (3 donors), resting (IL-2 0 ng/mL); assay: as above; settings: 72 h
IMC-1 (IL-2 20 ng/mL) [11] = assay: as above; settings: 72 h
NK-YS (IL-2 2.5 ng/mL) [12] = assay: as above; settings: 72 h
[13] = test system: normal primary NK cells, pool 1 (3 donors) (IL-2 2.5 ng/mL); assay: as above; settings: 72 h
[14] = test system: normal NK cells expanded with K562-aAPC; assay: drug sensitivity score (DSS) (DSS units); higher = more sensitive; extreme values may be limits of the assay; settings: 72 h; IL-2 2.5 ng/mL
Protocol: (§1)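 Drug sensitivity and resistance testing on K562-aAPC-expanded normal NK cells: 5 concentrations (10-fold steps over a 10,000-fold range), 72 h at 37 °C, viability by CellTiter-Glo normalised to DMSO and benzethonium chloride controls; DSS from the fitted curve.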

KHYG-1 (IL-2 2.5 ng/mL) [15] = assay: as above; settings: 72 h
[16] = test system: normal primary NK cells, pool 2 (3 donors) (IL-2 2.5 ng/mL); assay: as above; settings: 72 h
DERL-7 (IL-2 2.5 ng/mL) [17] = assay: as above; settings: 72 h
NKL (IL-2 2.5 ng/mL) [18] = assay: as above; settings: 72 h
KAI3 (IL-2 2.5 ng/mL) [19] = assay: as above; settings: 72 h
NK-92 (IL-2 2.5 ng/mL) [20] = assay: as above; settings: 72 h
YT (IL-2 2.5 ng/mL) [21] = assay: as above; settings: 72 h
[22] = test system: normal primary NK cells, pool 3 (3 donors) (IL-2 2.5 ng/mL); assay: as above; settings: 72 h
SNK-6 (IL-2 2.5 ng/mL) [23] = assay: as above; settings: 72 h
[24] = test system: normal primary NK cells, pool 1 (3 donors), resting (IL-2 0 ng/mL); assay: as above; settings: 72 h
IMC-1 (IL-2 20 ng/mL) [25] = assay: as above; settings: 72 h
NK-YS (IL-2 2.5 ng/mL) [26] = assay: as above; settings: 72 h
[27] = test system: normal primary NK cells, pool 1 (3 donors) (IL-2 2.5 ng/mL); assay: as above; settings: 72 h
[28] = test system: normal NK cells expanded with K562-aAPC; assay: percent inhibition of viability; higher = more inhibition; settings: 72 h, IL-2 2.5 ng/mL
Protocol: as §1

Cn1cc(-c2cnn3c(N)c(Br)c([C@@H]4CCCNC4)nc23)cn1 [MK-8776] (max concentration tested 2500 nM)
percent inhibition of viability [%]
Settings | 0.25 nM | 2.5 nM | 25 nM | 250 nM | 2500 nM
DERL-7 (IL-2 2.5 ng/mL) [3] | -4.26 | -3.5 | 3.67 | 6.88 | 55.8
IMC-1 (IL-2 20 ng/mL) [11] | 0.83 | -1.94 | -0.11 | -7.96 | -12.2
KAI3 (IL-2 2.5 ng/mL) [5] | 3.31 | 2.43 | 4.64 | 27.4 | 78.2
KHYG-1 (IL-2 2.5 ng/mL) [1] | -1.01 | -4.38 | -0.53 | 35.5 | 96.9
NK-92 (IL-2 2.5 ng/mL) [6] | -2.81 | 3.64 | -4.5 | 1.39 | 59.4
NK-YS (IL-2 2.5 ng/mL) [12] | -4.27 | -8.69 | -3.31 | 4.44 | 71.2
NKL (IL-2 2.5 ng/mL) [4] | -4.57 | -4.36 | -8.73 | 22.1 | 81.6
SNK-6 (IL-2 2.5 ng/mL) [9] | 9.37 | 1.96 | -6.2 | 5.96 | 39.8
YT (IL-2 2.5 ng/mL) [7] | 0.02 | -2.99 | 0.3 | 1.22 | 7.84
[2] | -8.05 | -5.57 | -3.65 | -0.92 | 21.5
[8] | -9.21 | -3.85 | -3.76 | -1.26 | 7.54
[10] | -9.91 | -16.5 | 4.6 | 0.8 | 20
[13] | -5.76 | -3.11 | 7.06 | 4.82 | 30.9
[28] | -4.61 | 0.4 | -2.28 | 10.6 | 52.3

Settings | drug sensitivity score
DERL-7 (IL-2 2.5 ng/mL) [17] | 4.16
IMC-1 (IL-2 20 ng/mL) [25] | 0
KAI3 (IL-2 2.5 ng/mL) [19] | 7.81
KHYG-1 (IL-2 2.5 ng/mL) [15] | 10.2
NK-92 (IL-2 2.5 ng/mL) [20] | 3.39
NK-YS (IL-2 2.5 ng/mL) [26] | 4.58
NKL (IL-2 2.5 ng/mL) [18] | 7.86
SNK-6 (IL-2 2.5 ng/mL) [23] | 2.97
YT (IL-2 2.5 ng/mL) [21] | 0
[14] | 4.51
[16] | 0.64
[22] | 0
[24] | 0.68
[27] | 2.16

CC(C)(C)c1cc(NC(=O)Nc2ccc(-c3cn4c(n3)sc3cc(OCCN5CCOCC5)ccc34)cc2)no1 [Quizartinib] (max concentration tested 1000 nM)
percent inhibition of viability [%]
Settings | 0.1 nM | 1 nM | 10 nM | 100 nM | 1000 nM
DERL-7 (IL-2 2.5 ng/mL) [3] | 4.27 | 4.47 | 0.07 | 4.17 | 33.4
IMC-1 (IL-2 20 ng/mL) [11] | -3.97 | -4.91 | -0.67 | -2.42 | -27
KAI3 (IL-2 2.5 ng/mL) [5] | 0.8 | -2.84 | 2.67 | 15.2 | 68.6
KHYG-1 (IL-2 2.5 ng/mL) [1] | -4.77 | -6.69 | -1.59 | 7.07 | 69.5
NK-92 (IL-2 2.5 ng/mL) [6] | 4.94 | 6.77 | 3.37 | 9.08 | 32.8
NK-YS (IL-2 2.5 ng/mL) [12] | -4.56 | -6.94 | -2.6 | 3.09 | 45.4
NKL (IL-2 2.5 ng/mL) [4] | -4.32 | -4.59 | -3.22 | 6.3 | 40.2
SNK-6 (IL-2 2.5 ng/mL) [9] | 19.5 | -15.2 | -9.07 | -27.8 | 31.3
YT (IL-2 2.5 ng/mL) [7] | -3.18 | -4.77 | -2.32 | 8.06 | 28.5
[2] | -4.07 | 3.45 | 0.79 | 8.48 | 5.08
[8] | -1.63 | 14.8 | 1.27 | -1.92 | 11.7
[10] | 6.94 | 18.5 | 11.5 | 15.2 | 11.1
[13] | -1.34 | 14.2 | 4.45 | 6.54 | 7.43
[28] | -5.93 | -6.07 | -5.11 | 1.78 | 12

Settings | drug sensitivity score
DERL-7 (IL-2 2.5 ng/mL) [17] | 2.22
IMC-1 (IL-2 20 ng/mL) [25] | 0
KAI3 (IL-2 2.5 ng/mL) [19] | 6.21
KHYG-1 (IL-2 2.5 ng/mL) [15] | 4.98
NK-92 (IL-2 2.5 ng/mL) [20] | 2.69
NK-YS (IL-2 2.5 ng/mL) [26] | 2.8
NKL (IL-2 2.5 ng/mL) [18] | 3.06
SNK-6 (IL-2 2.5 ng/mL) [23] | 0.72
YT (IL-2 2.5 ng/mL) [21] | 2.36
[14] | 0.13
[16] | 0
[22] | 0.01
[24] | 0
[27] | 0

— the supplement of paper PMC5908809
